Reference: patent US20090258041A1, “Protection of Oxidizable Agents” (priority 2005, published 2009)

Experiment: Stabilization of Vitamin C: spectral absorption at 265 nm after exposure to air with storage in the dark
Assay type: physicochemical
Conditions: Vitamin C combined with Nanotope AO7 (encapsulated AO7 1.00%, ascorbic acid 1.00% in water phase), phosphate buffer pH 6, exposure to air, 20° C.
Procedure: Aqueous solution of Vitamin C (concentration=40.5 mM), buffered at pH=6 (Phosphate buffer, previously evacuated and then flushed with Nitrogen to remove as much Oxygen as possible). a) Standalone Vitamin C: 0.7 mM b) Combination Vitamin C/Nanotope AO7: [table] Absorption measurement with Perkin Elmer Lambda 16; cuvette length d=0.1 cm Irradiation chamber Atlas CPS+; temperature of measurement=35° C. Spectral absorption of Vitamin C (Ascorbic Acid) at its maximum wavelength (Imax=265 nm); maximum extinction at time after exposure to air with storage in the dark. Experiments were done at 20° C.

O=C1O[C@H]([C@@H](O)CO)C(O)=C1O [Vitamin C, ascorbic acid]
protection of Vitamin C (maximum extinction at 265 nm): efficiently protected
